Reference: PubChem BioAssay (NCI)
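Assay format: 96-well plates, 48-hour exposure. TGI is the concentration that stops growth completely.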

Columns and labels:
Experiment in all cases: growth of human tumour cells (NCI), 48 h
[1] = tested on: HS 578T breast
[2] = tested on: MDA-MB-231 breast
[3] = tested on: MCF7 breast
[4] = tested on: DMS 114 small cell lung
[5] = tested on: TK-10 renal
[6] = tested on: MDA-N
[7] = tested on: M14 melanoma
[8] = tested on: A498 renal
[9] = tested on: SK-MEL-5 melanoma
[10] = tested on: SR leukemia
[11] = tested on: RPMI-8226 leukemia
[12] = tested on: SN12C renal
[13] = tested on: OVCAR-8 ovarian
[14] = tested on: K-562 leukemia
[15] = tested on: KM12 colon
[16] = tested on: IGROV1 ovarian
[17] = tested on: HCT-116 colon
[18] = tested on: OVCAR-5 ovarian
[19] = tested on: UACC-62 melanoma
[20] = tested on: CCRF-CEM leukemia
[21] = tested on: PC-3 prostate
[22] = tested on: BT-549 breast
[23] = tested on: SF-295 CNS
[24] = tested on: MALME-3M melanoma
[25] = tested on: DLD-1 colon
[26] = tested on: HOP-18 NSCLC
[27] = tested on: UACC-257 melanoma
[28] = tested on: HCT-15 colon
[29] = tested on: OVCAR-4 ovarian
[30] = tested on: NCI-H23 lung
[31] = tested on: SK-OV-3 ovarian
[32] = tested on: SNB-19 CNS
[33] = tested on: COLO 205 colon
[34] = tested on: MDA-MB-435
[35] = tested on: SF-539 CNS
[36] = tested on: NCI-H460 lung
[37] = tested on: U251 CNS
[38] = tested on: CAKI-1 renal
[39] = tested on: EKVX NSCLC
[40] = tested on: UO-31 renal
[41] = tested on: NCI-H522 lung
[42] = tested on: HT29 colon
[43] = tested on: KM20L2 colon
[44] = tested on: MOLT-4 leukemia
[45] = tested on: HOP-62 NSCLC
[46] = tested on: SF-268 CNS
[47] = tested on: SK-MEL-2 melanoma
[48] = tested on: XF 498 CNS
[49] = tested on: DMS 273 small cell lung
[50] = tested on: ACHN renal
[51] = tested on: SNB-75 CNS
[52] = tested on: HL-60(TB) leukemia
[53] = tested on: SK-MEL-28 melanoma
[54] = tested on: M19-MEL melanoma
[55] = tested on: SW-620 colon
[56] = tested on: NCI-H226 lung
[57] = tested on: RXF 393 renal
[58] = tested on: OVCAR-3 ovarian
[59] = tested on: T-47D breast
[60] = tested on: 786-0 renal
[61] = tested on: HCC-2998 colon
[62] = tested on: LXFL 529 NSCLC
[63] = tested on: LOX IMVI melanoma
[64] = tested on: A549 NSCLC
[65] = tested on: HOP-92 NSCLC
[66] = tested on: SNB-78 CNS
[67] = tested on: RXF-631 renal

## CC1=C(C(=O)Nc2ccccc2)C(c2ccc(C3C(C(=O)Nc4ccccc4)=C(C)NC(C)=C3C(=O)Nc3ccccc3)cc2)C(C(=O)Nc2ccccc2)=C(C)N1
[1]
  TGI: 16.2 µM
[2]
  TGI: 13.4 µM
[3]
  TGI: 14.7 µM
[4]
  TGI: 17.8 µM
[5]
  TGI: 18.3 µM
[6]
  TGI: 14.5 µM
[7]
  TGI: 6.46 µM
[8]
  TGI: 24 µM
[9]
  TGI: 6.22 µM
[10]
  TGI: 5.41 µM
[11]
  TGI: 13.8 µM
[12]
  TGI: 4.71 µM
[13]
  TGI: 11.2 µM
[14]
  TGI: > 53 µM
[15]
  TGI: 5.01 µM
[16]
  TGI: 6.94 µM
[17]
  TGI: 4.52 µM
[18]
  TGI: 17.6 µM
[19]
  TGI: 4.09 µM
[20]
  TGI: 12 µM
[21]
  TGI: 12.5 µM
[22]
  TGI: 8.67 µM
[23]
  TGI: 7.88 µM
[24]
  TGI: 4.33 µM
[25]
  TGI: 8.15 µM
[26]
  TGI: 21.7 µM
[27]
  TGI: 5.06 µM
[28]
  TGI: 9 µM
[29]
  TGI: 16.1 µM
[30]
  TGI: 8.65 µM
[31]
  TGI: 26.2 µM
[32]
  TGI: 20.5 µM
[33]
  TGI: 10.6 µM
[34]
  TGI: 5.83 µM
[35]
  TGI: 5.97 µM
[36]
  TGI: 8.29 µM
[37]
  TGI: 3 µM
[38]
  TGI: 14.4 µM
[39]
  TGI: 10.6 µM
[40]
  TGI: 23.1 µM
[41]
  TGI: 3.14 µM
[42]
  TGI: 3.77 µM
[43]
  TGI: 4.94 µM
[44]
  TGI: 11.6 µM
[45]
  TGI: 10.6 µM
[46]
  TGI: 5.7 µM
[47]
  TGI: 5.06 µM
[48]
  TGI: 20.5 µM
[49]
  TGI: 7.24 µM
[50]
  TGI: 4.2 µM
[51]
  TGI: 23.7 µM
[52]
  TGI: 7.21 µM
[53]
  TGI: 3.64 µM
[54]
  TGI: 22 µM
[55]
  TGI: 5.56 µM
[56]
  TGI: 16 µM
[57]
  TGI: 3.87 µM
[58]
  TGI: 14.5 µM
[59]
  TGI: 16.2 µM
[60]
  TGI: 8.92 µM
[61]
  TGI: 5.74 µM
[62]
  TGI: 5.34 µM
[63]
  TGI: 3.24 µM
[64]
  TGI: 21.8 µM
[65]
  TGI: 9.78 µM

## COC(=O)c1cccc2cccc(C(=O)Nc3ccc(Cl)cc3)c12
[4]
  TGI: > 100 µM
[5]
  TGI: > 100 µM
[7]
  TGI: > 100 µM
[8]
  TGI: > 100 µM
[9]
  TGI: > 100 µM
[10]
  TGI: 50.8 µM
[11]
  TGI: 33.7 µM
[12]
  TGI: > 100 µM
[13]
  TGI: > 100 µM
[14]
  TGI: > 33 µM
[15]
  TGI: > 100 µM
[16]
  TGI: > 100 µM
[17]
  TGI: > 100 µM
[18]
  TGI: > 100 µM
[20]
  TGI: > 67.1 µM
[23]
  TGI: > 100 µM
[24]
  TGI: > 100 µM
[25]
  TGI: > 62.5 µM
[26]
  TGI: > 100 µM
[27]
  TGI: > 100 µM
[28]
  TGI: > 53.1 µM
[29]
  TGI: > 100 µM
[30]
  TGI: > 100 µM
[31]
  TGI: > 100 µM
[32]
  TGI: > 100 µM
[33]
  TGI: > 62.3 µM
[35]
  TGI: > 100 µM
[36]
  TGI: > 100 µM
[37]
  TGI: > 100 µM
[38]
  TGI: > 100 µM
[39]
  TGI: > 100 µM
[40]
  TGI: > 100 µM
[66]
  TGI: > 100 µM
[41]
  TGI: > 91 µM
[67]
  TGI: > 100 µM
[42]
  TGI: > 100 µM
[43]
  TGI: > 100 µM
[44]
  TGI: > 100 µM
[45]
  TGI: > 100 µM
[46]
  TGI: > 100 µM
[47]
  TGI: > 100 µM
[48]
  TGI: > 100 µM
[49]
  TGI: 22.2 µM
[50]
  TGI: > 100 µM
[51]
  TGI: > 100 µM
[52]
  TGI: 22.1 µM
[53]
  TGI: > 100 µM
[54]
  TGI: > 100 µM
[55]
  TGI: > 66.8 µM
[56]
  TGI: > 100 µM
[57]
  TGI: > 100 µM
[58]
  TGI: > 100 µM
[60]
  TGI: > 100 µM
[61]
  TGI: > 100 µM
[62]
  TGI: > 100 µM
[63]
  TGI: > 100 µM
[64]
  TGI: > 100 µM
[65]
  TGI: > 100 µM

## COc1cc(C(=O)N2CCc3c([nH]c4c([N+](=O)[O-])c(OC)ccc34)C2C)cc(OC)c1OC (stereo not given)
[4]
  TGI: > 100 µM
[5]
  TGI: > 100 µM
[7]
  TGI: > 100 µM
[8]
  TGI: > 100 µM
[10]
  TGI: > 100 µM
[11]
  TGI: > 100 µM
[12]
  TGI: > 100 µM
[13]
  TGI: > 100 µM
[14]
  TGI: > 100 µM
[15]
  TGI: > 100 µM
[16]
  TGI: 22.3 µM
[17]
  TGI: > 100 µM
[18]
  TGI: > 100 µM
[19]
  TGI: 39.5 µM
[20]
  TGI: > 100 µM
[23]
  TGI: > 100 µM
[25]
  TGI: > 100 µM
[27]
  TGI: > 100 µM
[28]
  TGI: > 100 µM
[29]
  TGI: > 100 µM
[30]
  TGI: > 100 µM
[32]
  TGI: > 100 µM
[33]
  TGI: > 100 µM
[35]
  TGI: > 100 µM
[36]
  TGI: > 100 µM
[37]
  TGI: > 100 µM
[38]
  TGI: > 100 µM
[39]
  TGI: > 100 µM
[40]
  TGI: > 100 µM
[66]
  TGI: > 100 µM
[41]
  TGI: > 100 µM
[67]
  TGI: > 100 µM
[42]
  TGI: > 100 µM
[43]
  TGI: > 100 µM
[44]
  TGI: > 100 µM
[45]
  TGI: > 100 µM
[46]
  TGI: > 100 µM
[47]
  TGI: > 100 µM
[49]
  TGI: > 100 µM
[50]
  TGI: > 100 µM
[51]
  TGI: 98.3 µM
[52]
  TGI: > 100 µM
[53]
  TGI: > 100 µM
[55]
  TGI: > 100 µM
[56]
  TGI: > 100 µM
[57]
  TGI: 91.2 µM
[58]
  TGI: > 100 µM
[60]
  TGI: > 100 µM
[61]
  TGI: > 100 µM
[62]
  TGI: > 100 µM
[63]
  TGI: > 100 µM
[64]
  TGI: > 100 µM
